# Assay results as given in patent publication US20050009862A1, “Method for promoting uninterrupted sleep by administration of trospium chloride” (priority 2003, published 2005).
# Columns and labels:
# Type in all cases: in vivo, human
# [1] = tested on: Patients with overactive bladder associated with predominant urge incontinence and complaining of frequent wakefulness throughout the night; assay: Example 2: single dose before sleeping in overactive bladder patients with frequent wakefulness at night; conditions: 20 mg given 0.5 h before sleeping
# Protocol: Patients with overactive bladder associated with predominant urge incontinence and complaining of frequent wakefulness throughout the night due to repeated urges to urinate are given 20 mg of trospium chloride 0.5 h before sleeping.
# [2] = tested on: People complaining of frequent wakefulness throughout the night due to repeated urges to urinate; assay: Example 3: single dose before sleeping in people with frequent wakefulness at night; conditions: 20 mg given 1.0 h before sleeping
# Protocol: People complaining of frequent wakefulness throughout the night due to repeated urges to urinate are given 20 mg of trospium chloride 1.0 h before sleeping.
# [3] = tested on: patients with overactive bladder (OAB) associated with predominant urge incontinence; assay: Same Phase III study, safety (adverse events, clinical laboratory tests, vital signs, ECG)
# Protocol: A multicenter, double-blind, placebo-controlled study of 20 mg, twice-daily trospium chloride for 12 weeks followed by a 9-month, open-label treatment phase in patients with overactive bladder.
# Multicenter, parallel, randomized, double-blind, placebo-controlled trial of patients with overactive bladder (OAB) associated with predominant urge incontinence. Patients who were currently receiving OAB drug therapy were to begin treatment after a 3-week washout period that included the 7-day patient urinary diary collection. Patients who were not currently receiving OAB drug therapy (i.e., naive patients) could begin treatment with study medication following their 7-day patient urinary diary collection and continued for a total double-blind treatment duration of 12 weeks.
# Patients were randomized on a 1:1 basis to receive either placebo or trospium chloride 20 mg twice daily during the double-blind treatment segment of the study. The randomization schedule for patients was stratified by the mean baseline number of micturitions (i.e., toilet voids) per 24 hours (collected via the patient urinary diary over 7 days); specifically, using the stratified categories of 10 to 15, 16 to 20, and ≧21 mean micturitions per 24 hours. Patients were periodically evaluated during the 12-week treatment segment and were to return on Day 84 for the Week 12 assessments.
# Adverse events (AEs), clinical laboratory tests, vital signs, and 12-lead electrocardiograms (ECGs).
# The Fisher's Exact test was used to analyze adverse events. Other categorical data were analyzed using the Cochran-Mantel-Haenszel (CMH) procedure with center as the stratification variable. For all continuous data analyses, an analysis of variance (ANOVA) model with center and treatment was used.
# [4] = tested on: patients with overactive bladder (OAB) associated with predominant urge incontinence; assay: Phase III multicenter, double-blind, placebo-controlled 12-week study of trospium chloride 20 mg twice daily (#IP631-003), efficacy from patient urinary diary
# Source text: A multi-center, parallel, randomized, double-blind, placebo controlled study (#IP631-003) was based on data collected as a result of administering the IUSS during a 12-week^1-clinical trial of patients with overactive bladder (OAB) associated with predominant urge incontinence—for trospium chloride in the United States. For full details on the clinical study ethics, administration, objectives and design, selection of study population, treatments, efficacy and safety variables and statistical methodology please refer to the clinical study protocol #IP631-003 and the ‘Final Report for the Double-Blind Phase’ prepared by Quintiles Inc.
# The IUSS (Appendix A) asks patients about their ‘degree of urgency’ of their toilet voids (as meant to describe the urge to urinate). Patients are asked to rate the degree of urgency they felt before reaching the toilet for a toilet void (defined in the study as urination in the toilet). The instructions state that “Sometimes you may feel a very strong urge to urinate, and at other times, you may feel a milder urge prior to the onset of a toilet void. Rate this feeling by circling 0, 1, 2 or 3.” The instructions specify the following four response options: • 0: None—no urgency; • 1: Mild—awareness of urgency, but is easily tolerated and you can continue with your usual activity or tasks; • 2: Moderate—enough urgency discomfort that it interferes with or shortens your usual activity or tasks; and • 3: Severe—extreme urgency discomfort that abruptly stops all activity or tasks.
# This single-item Urgency Severity Scale was contained within a ‘Patient Urinary Diary’, which was completed by all patients during four discrete one-week periods in the course of the 12-week double-blind trial (baseline and study treatment weeks 1, 4 and 12). During each of the one-week data collection periods, patients completed the diary every day for a total of seven days. […] In the diary, an urge leak was defined as a leakage due to a very strong need or desire to urinate. A stress leak was defined as being a result of coughing, sneezing, standing, laughing, exercise, or other physical activity/movement exerting pressure on the bladder. In addition, during the last two days of the 7-day diary collection period (days 6 and 7), patients collected and measured all urine volume for each and every toilet void and recorded this within the diary.
# The study population for the clinical trial was 523 patients who received at least one dose of the study medication. Patients who entered the trial were required to have overactive bladder, defined as: • Urinary frequency of ≧70 toilet voids per 7 days (i.e. ≧10 toilet voids per day) as recorded in a patient urinary diary during a “washout” period; • Symptoms of urgency (i.e. sudden desire to toilet void); • Pure urge or mixed urinary incontinence with predominant urge incontinence.
# Trospium chloride is an anticholinergic agent with predominantly peripheral antimuscarinic activity. Its mechanism enables the detrusor to relax, inhibiting evacuation of the bladder. Patients were randomized on a 1:1 basis to receive either placebo or trospium chloride. Patients receiving trospium chloride took one 20-mg tablet twice daily. Those receiving placebo took one placebo tablet twice daily. The identity of the study medication was blinded.
# Patients completed a patient diary on a daily basis during four one-week data collection windows: baseline, week 1, week 4 and week 12. The diary collected the following patient-reported outcome data: • IUSS; • Number of toilet voids; • Number of urge incontinence episodes, and separately, stress incontinence episodes; • Volume voided (mL), collected on the last 2 of 7 days of the 7 day diary.
# A multicenter, double-blind, placebo-controlled study of 20 mg, twice-daily trospium chloride for 12 weeks followed by a 9-month, open-label treatment phase in patients with overactive bladder. […]
smiles,measurement,setting,value
"O=C(O[C@H]1C[C@H]2CC[C@@H](C1)[N+]21CCCC1)C(O)(c1ccccc1)c1ccccc1 [Trospium, 3-alpha-benziloyloxynortropane-8-spiro-1′-pyrrolidinium chloride]",Sleep during the normal sleep period,[1],uninterrupted sleep throughout their normal sleep periods
same,Sleep during the normal sleep period,[2],uninterrupted sleep throughout their normal sleep periods
same,Overall safety and tolerability,"[3]; 20 mg twice daily, 12 weeks",safe and generally well tolerated
same,Patients with QTcF intervals >500 msec that had increased by >60 msec from baseline,"[3]; 1 patient in each treatment group, no clinical signs, resolved at endpoint",1 patient
same,Patients in whom study medication was permanently discontinued due to TEAEs (percent),"[3]; 12-week double-blind phase, 20 mg twice daily, placebo 5.7%",8.8%
same,Patients in whom study medication was permanently discontinued due to TEAEs (number),"[3]; 12-week double-blind phase, 20 mg twice daily, placebo 15 patients",23 patients
same,Patients who experienced an adverse event leading to death,"[3]; person, hemorrhagic stroke on Day 57, assessed as remotely related to study medication",1 patient
same,Most common TEAEs that led to discontinuation of study medication,[3]; trospium group,"dry mouth, constipation, abdominal pain NOS, and urinary retention"
same,Mean change from baseline: Number of toilet voids/24 hours,"[4]; Week 12, 20 mg oral tablet twice daily, N = 253, ITT:LOCF, placebo −1.29, P <0.0001",−2.37
same,Mean change from baseline: Volume voided (mL) per toilet void/24 hours,"[4]; Week 12, 20 mg twice daily, N = 248, ITT:LOCF, placebo 7.72, P <0.0001",32.14 mL
same,"Mean change from baseline: Urgency severity score associated with toilet voids (IUSS, 0-3)","[4]; Week 12, 20 mg twice daily, N = 253, ITT:LOCF, placebo −0.04, P 0.0001",−0.22
same,Mean change from baseline: Number of nocturnal toilet voids/24 hours,"[4]; Week 12, 20 mg twice daily, N = 253, ITT:LOCF, placebo −0.29, P 0.0255",−0.47
same,Mean change from baseline: Number of urge incontinence episodes/24 hours,"[4]; Week 12, 20 mg twice daily, N = 253, ITT:LOCF, placebo −1.98, P 0.0118 (ranked ANOVA)",−2.20
same,Change in average urgency severity per 24 hours compared with placebo,"[4]; at Weeks 1, 4, and 12",significant decrease
same,Change in average volume voided compared with placebo,"[4]; at Weeks 1, 4, and 12",statistically significant increase
same,Change in average number of toilet voids per 24 hours compared with placebo,"[4]; at Weeks 1, 4, and 12, improvement = decrease",statistically significant (p≦0.05) improvement
same,Change in average number of urge incontinence episodes per 24 hours compared with placebo,"[4]; at Weeks 4 and 12, improvement = decrease",statistically significant (p≦0.05) improvement
same,"Onset of action during Week 1 for effect on toilet voids, urge incontinence episodes, and total micturitions per 24 hours",[4]; consistently significant effects by Day 7,superior when compared with placebo
same,Average reduction in mean number of urgency episodes (IUSS severity >0),"[4]; over the 12-week trial, baseline mean 11.29, placebo reduction 1.08, p<0.01",2.30 urgency episodes
